Laboratory results from PubChem BioAssay (NCI).
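Exposure lasted 48 hours, with cells grown in 96-well plates and compounds tested at five concentrations. GI50 = concentration required for 50% inhibition of growth. TGI denotes the concentration required for complete inhibition of growth.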

Assays:
Assay in all cases: inhibition of tumour cell growth, NCI panel, 48 h; in the data active means GI50 below about 0.43 µM; inactive means the rest
HOP-62 NSCLC = test system: HOP-62 NSCLC
M14 melanoma = test system: M14 melanoma
TK-10 renal = test system: TK-10 renal
A498 renal = test system: A498 renal
SF-268 CNS = test system: SF-268 CNS
OVCAR-8 ovarian = test system: OVCAR-8 ovarian
HL-60(TB) leukemia = test system: HL-60(TB) leukemia
UACC-62 melanoma = test system: UACC-62 melanoma
SNB-75 CNS = test system: SNB-75 CNS
RXF 393 renal = test system: RXF 393 renal
UO-31 renal = test system: UO-31 renal
CCRF-CEM leukemia = test system: CCRF-CEM leukemia
OVCAR-4 ovarian = test system: OVCAR-4 ovarian
HS 578T breast = test system: HS 578T breast
HCT-15 colon = test system: HCT-15 colon
HCC-2998 colon = test system: HCC-2998 colon
BT-549 breast = test system: BT-549 breast
NCI-H460 lung = test system: NCI-H460 lung
NCI-H226 lung = test system: NCI-H226 lung
MALME-3M melanoma = test system: MALME-3M melanoma
PC-3 prostate = test system: PC-3 prostate
SK-OV-3 ovarian = test system: SK-OV-3 ovarian
NCI-H522 lung = test system: NCI-H522 lung
SF-295 CNS = test system: SF-295 CNS
U251 CNS = test system: U251 CNS
K-562 leukemia = test system: K-562 leukemia
LOX IMVI melanoma = test system: LOX IMVI melanoma

Clc1ccc(Cc2nc3cc4ccccc4cc3[nH]2)cc1
29.6 µM: TGI (U251 CNS)
inactive: GI50 (HOP-62 NSCLC) 10.2 µM | GI50 (M14 melanoma) 53.1 µM | GI50 (TK-10 renal) 10.6 µM | GI50 (A498 renal) 21.7 µM | GI50 (SF-268 CNS) 10.9 µM | GI50 (OVCAR-8 ovarian) 7.92 µM | GI50 (HL-60(TB) leukemia) > 100 µM | GI50 (UACC-62 melanoma) 73.5 µM | GI50 (SNB-75 CNS) > 100 µM | GI50 (RXF 393 renal) > 100 µM | GI50 (UO-31 renal) 54.1 µM | GI50 (CCRF-CEM leukemia) 2.21 µM | GI50 (OVCAR-4 ovarian) 22.7 µM | GI50 (HS 578T breast) 12.4 µM | GI50 (HCT-15 colon) 5.33 µM | GI50 (HCC-2998 colon) 15.8 µM | GI50 (BT-549 breast) 14.1 µM | GI50 (NCI-H460 lung) 2.22 µM | GI50 (NCI-H226 lung) 30.1 µM | GI50 (MALME-3M melanoma) 26.8 µM | GI50 (PC-3 prostate) 7.12 µM | GI50 (SK-OV-3 ovarian) 14.7 µM | GI50 (NCI-H522 lung) 82 µM | GI50 (SF-295 CNS) 3.08 µM | GI50 (U251 CNS) 10.5 µM | GI50 (K-562 leukemia) 50.8 µM | GI50 (LOX IMVI melanoma) 13.2 µM
83.3 µM: TGI (SK-OV-3 ovarian)
38.4 µM: TGI (TK-10 renal)
30.8 µM: TGI (HOP-62 NSCLC)
30 µM: TGI (SF-295 CNS)
67.7 µM: TGI (HS 578T breast)
89.5 µM: TGI (HCC-2998 colon)
> 100 µM: TGI (M14 melanoma) | TGI (A498 renal) | TGI (HL-60(TB) leukemia) | TGI (UACC-62 melanoma) | TGI (SNB-75 CNS) | TGI (RXF 393 renal) | TGI (UO-31 renal) | TGI (CCRF-CEM leukemia) | TGI (OVCAR-4 ovarian) | TGI (BT-549 breast) | TGI (NCI-H460 lung) | TGI (NCI-H226 lung) | TGI (MALME-3M melanoma) | TGI (PC-3 prostate) | TGI (NCI-H522 lung) | TGI (K-562 leukemia) | TGI (LOX IMVI melanoma)
37.1 µM: TGI (OVCAR-8 ovarian)
26.4 µM: TGI (HCT-15 colon)
75.7 µM: TGI (SF-268 CNS)
